Data on 29 compounds can be found in patent US12398120B2, “Substituted hydantoinamides as ADAMTS7 antagonists” (BAYER AKTIENGESELLSCHAFT, priority 2019, dated 2025).

As usually defined, the IC50 is the concentration at which inhibition is half-maximal. High values mean a need for much substance, low ones inhibition by little substance.

In the test the target is ADAMTS4 (Homo sapiens (Human), UniProt O75173). In words: Selectivity assay for ADAMTS-7 modulators: ADAMTS4 (FRET substrate). Type of test: biochemical. Particulars: ADAMTS4 (R&D 4307-AD) 50 nM, substrate Dabcyl-EEVKAKVQPY-Glu(Edans)-NH2 1 μM, 120 min, 32° C. In outline: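 Activity read as rising fluorescence after a FRET substrate is cleaved by human ADAMTS4, with reactions started by substrate addition to wells holding compound or DMSO. Percent inhibition plotted against concentration gave IC50.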
Chain of ADAMTS4 (O75173 213-685): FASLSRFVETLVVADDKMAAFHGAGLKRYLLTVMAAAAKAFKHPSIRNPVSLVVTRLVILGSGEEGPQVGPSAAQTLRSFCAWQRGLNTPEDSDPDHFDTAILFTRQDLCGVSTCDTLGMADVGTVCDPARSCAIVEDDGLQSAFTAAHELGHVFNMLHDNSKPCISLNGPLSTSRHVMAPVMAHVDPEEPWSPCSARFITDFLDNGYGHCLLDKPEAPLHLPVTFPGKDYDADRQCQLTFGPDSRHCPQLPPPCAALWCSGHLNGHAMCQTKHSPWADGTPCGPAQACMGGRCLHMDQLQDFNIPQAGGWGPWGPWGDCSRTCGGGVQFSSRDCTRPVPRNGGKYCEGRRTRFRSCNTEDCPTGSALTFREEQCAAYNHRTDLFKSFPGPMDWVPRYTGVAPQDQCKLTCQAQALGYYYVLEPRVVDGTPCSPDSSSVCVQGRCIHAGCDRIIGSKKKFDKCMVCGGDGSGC
As for `O=C1NC(=O)[C@](CNC(=O)c2ccc(F)cc2-c2ccc(C(F)(F)F)cc2)(C2CC2)N1` [Example 116, N-{[(4R)-4-Cyclopropyl-2,5-Dioxoimidazolidin-4-Yl]Methyl}-5-Fluoro-4′-(Trifluoromethyl)[Biphenyl]-2-Carboxamide], the 50% inhibitory concentration (IC50) was found to be 12 µM.
Turning to `Cc1ccc(-c2cc(C)ccc2C(=O)NC[C@@]2(C3CC3)NC(=O)NC2=O)cc1` [Example 22, N-{[(4R)-4-Cyclopropyl-2,5-Dioxoimidazolidin-4-Yl]Methyl}-4′,5-Dimethyl[Biphenyl]-2-Carboxamide], the IC50 came out at 3.9 µM.
`Cc1nc(C)c(C2(CNC(=O)c3ccccc3-c3ccc(C(F)(F)F)nc3)NC(=O)NC2=O)s1` (racemic) [Example 34, Rac-N-{[4-(2,4-Dimethyl-1,3-Thiazol-5-Yl)-2,5-Dioxoimidazolidin-4-Yl]Methyl}-2-[6-(Trifluoromethyl)Pyridin-3-Yl]Benzamide] had an IC50 of 8.9 µM. This IC50 is about 2.3-fold higher than that of the compound before.
The compound `O=C1NC(=O)[C@](CNC(=O)c2ccccc2-c2ccc(Cl)cc2)(C2CC2)N1` [Example 220, 4′-Chloro-N-{[(4R)-4-Cyclopropyl-2,5-Dioxoimidazolidin-4-Yl]Methyl}[1,1′-Biphenyl]-2-Carboxamide] registered an IC50 of 7.8 µM.
As to `Cc1ccc(C(=O)NC[C@@]2(C3CC3)NC(=O)NC2=O)c(-c2ccc(C(F)(F)F)cc2)c1` [Example 218, N-{[(4R)-4-Cyclopropyl-2,5-Dioxoimidazolidin-4-Yl]Methyl}-5-Methyl-4′-(Trifluoromethyl)[Biphenyl]-2-Carboxamide], it took 4 µM to reach half-maximal inhibition (IC50).
To `O=C1NC(=O)[C@](CNC(=O)c2cccnc2-c2ccc(Cl)cc2)(C2CC2)N1` [Example 90, 2-(4-Chlorophenyl)-N-{[(4R)-4-Cyclopropyl-2,5-Dioxoimidazolidin-4-Yl]Methyl}Pyridine-3-Carboxamide] belongs 50 µM.
In the case of `Cn1nccc1C1(CNC(=O)c2cc(F)c(F)cc2-c2ccc(C(F)(F)F)cc2)NC(=O)NC1=O` (single isomer, unassigned; ent-4) [Example 192, Ent-4,5-Difluoro-N-{[4-(1-Methyl-1H-Pyrazol-5-Yl)-2,5-Dioxoimidazolidin-4-Yl]Methyl}-4′-(Trifluoromethyl)[Biphenyl]-2-Carboxamide], it took 7.13 µM to reach half-maximal inhibition (IC50).
The value for `Cc1ncn(C)c1C1(CNC(=O)c2ccc(F)cc2-c2ccc(C(F)(F)F)cc2)NC(=O)NC1=O` (racemic) [Example 286, Rac-N-{[4-(1,4-Dimethyl-1H-Imidazol-5-Yl)-2,5-Dioxoimidazolidin-4-Yl]Methyl}-5-Fluoro-4′-(Trifluoromethyl)[Biphenyl]-2-Carboxamide] was 9.8 µM.
Consider `CC(C)C1(CNC(=O)c2cc(F)c(F)cc2-c2ccc(C(F)(F)F)cc2)NC(=O)NC1=O` (single isomer, unassigned; ent-4) [Example 213, Ent-4,5-Difluoro-N-[(4-Isopropyl-2,5-Dioxoimidazolidin-4-Yl)Methyl]-4′-(Trifluoromethyl)[Biphenyl]-2-Carboxamide], for which 30 µM corresponded to half-maximal inhibition (IC50).
Regarding `Cc1scnc1C1(CNC(=O)c2cc(F)ccc2-c2ccc(C(F)(F)F)cc2)NC(=O)NC1=O` (single isomer, unassigned; ent-4) [Example 166, Ent-4-Fluoro-N-{[4-(5-Methyl-1,3-Thiazol-4-Yl)-2,5-Dioxoimidazolidin-4-Yl]Methyl}-4′-(Trifluoromethyl)[Biphenyl]-2-Carboxamide], it took 3.25 µM to reach half-maximal inhibition (IC50).
The value for `O=C1NC(=O)[C@](CNC(=O)c2cc(F)c(F)cc2-c2ccc(C(F)(F)F)cc2)(C2CC2)N1` [Example 20, N-{[(4R)-4-Cyclopropyl-2,5-Dioxoimidazolidin-4-Yl]Methyl}-4,5-Difluoro-4′-(Trifluoromethyl)[Biphenyl]-2-Carboxamide] was 28 µM; that for `O=C1NC(=O)[C@](CNC(=O)c2ccc(F)cc2-c2ccc(C3CC3)cc2)(C2CC2)N1` [Example 104, 4′-Cyclopropyl-N-{[(4R)-4-Cyclopropyl-2,5-Dioxoimidazolidin-4-Yl]Methyl}-5-Fluoro[Biphenyl]-2-Carboxamide] was 8.7 µM.
The compound `Cc1ccc(-c2cnccc2C(=O)NC[C@@]2(C3CC3)NC(=O)NC2=O)cc1` [Example 19, N-{[(4R)-4-Cyclopropyl-2,5-Dioxoimidazolidin-4-Yl]Methyl}-3-(4-Methylphenyl)Isonicotinamide] had an IC50 of more than 50 µM.
To `Cc1nc(C)c(C2(CNC(=O)c3ccccc3-c3ccc(C(F)(F)F)cc3)NC(=O)NC2=O)s1` (stereo not drawn) [Example 47, Ent-N-{[4-(2,4-Dimethyl-1,3-Thiazol-5-Yl)-2,5-Dioxoimidazolidin-4-Yl]Methyl}-4′-(Trifluoromethyl)[Biphenyl]-2-Carboxamide] belongs 4.15 µM; to `Cc1ccc(-c2ccccc2C(=O)NCC2(C(C)C)NC(=O)NC2=O)cc1` (stereo not drawn) [Example 205, Ent-N-[(4-Isopropyl-2,5-Dioxoimidazolidin-4-Yl)Methyl]-4′-Methyl[Biphenyl]-2-Carboxamide], 12 µM; to `Cc1nsnc1C1(CNC(=O)c2ccccc2-c2ccc(C(F)(F)F)nc2)NC(=O)NC1=O` (racemic) [Example 53, Rac-N-{[4-(4-Methyl-1,2,5-Thiadiazol-3-Yl)-2,5-Dioxoimidazolidin-4-Yl]Methyl}-2-[6-(Trifluoromethyl)Pyridin-3-Yl]Benzamide], 41 µM.
The value for `Cc1ccc(C(=O)NCC2(c3nccn3C)NC(=O)NC2=O)c(-c2ccc(C(F)(F)F)cc2)c1` (single isomer, unassigned; ent-5) [Example 151, Ent-5-Methyl-N-{[4-(1-Methyl-1H-Imidazol-2-Yl)-2,5-Dioxoimidazolidin-4-Yl]Methyl}-4′-(Trifluoromethyl)[Biphenyl]-2-Carboxamide] was 1.02 µM.
The value for `CC(C)C1(CNC(=O)c2ccc(F)cc2-c2ccc(C(F)(F)F)cc2)NC(=O)NC1=O` (racemic) [Example 206, Rac-5-Fluoro-N-[(4-Isopropyl-2,5-Dioxoimidazolidin-4-Yl)Methyl]-4′-(Trifluoromethyl)[Biphenyl]-2-Carboxamide] was more than 50 µM.
As to `O=C1NC(=O)C(CNC(=O)c2ccccc2-c2ccc(C(F)(F)F)cc2)(c2ncsc2C(F)(F)F)N1` (stereo not drawn) [Example 264, Ent-N-({2,5-Dioxo-4-[5-(Trifluoromethyl)-1,3-Thiazol-4-Yl]Imidazolidin-4-Yl}Methyl)-4′-(Trifluoromethyl)[Biphenyl]-2-Carboxamide], the IC50 turned out to be 11 µM.
`Cc1scnc1C1(CNC(=O)c2cc(F)c(F)cc2-c2ccc(C(F)(F)F)cc2)NC(=O)NC1=O` (single isomer, unassigned; ent-4) [Example 17, Ent-4,5-Difluoro-N-{[4-(5-Methyl-1,3-Thiazol-4-Yl)-2,5-Dioxoimidazolidin-4-Yl]Methyl}-4′-(Trifluoromethyl)[Biphenyl]-2-Carboxamide] returned an IC50 of 7.1 µM.
As to `Cn1ccnc1C1(CNC(=O)c2cccc(F)c2-c2ccc(C(F)(F)F)cc2)NC(=O)NC1=O` (single isomer, unassigned; ent-6) [Example 163, Ent-6-Fluoro-N-{[4-(1-Methyl-1H-Imidazol-2-Yl)-2,5-Dioxoimidazolidin-4-Yl]Methyl}-4′-(Trifluoromethyl)[Biphenyl]-2-Carboxamide], the IC50 was found to be 1.3 µM.
The compound `Cc1nocc1C1(CNC(=O)c2ccccc2-c2ccc(C(F)(F)F)cc2)NC(=O)NC1=O` (stereo not drawn) [Example 68, Ent-N-{[4-(3-Methyl-1,2-Oxazol-4-Yl)-2,5-Dioxoimidazolidin-4-Yl]Methyl}-4′-(Trifluoromethyl)[Biphenyl]-2-Carboxamide] yielded an IC50 of 11 µM. This IC50 lies about 8.5-fold higher than the previous one.
In turn, `Cc1nonc1C1(CNC(=O)c2ccccc2-c2ccc(C(F)(F)F)cc2)NC(=O)NC1=O` (racemic) [Example 32, Rac-N-{[4-(4-Methyl-1,2,5-Oxadiazol-3-Yl)-2,5-Dioxoimidazolidin-4-Yl]Methyl}-4′-(Trifluoromethyl)[Biphenyl]-2-Carboxamide] displayed a half-inhibitory concentration (IC50) of 35 µM.
To `O=C1NC(=O)C(CNC(=O)c2ccc(F)cc2-c2ccc(C(F)(F)F)cc2)(C23CC(F)(C2)C3)N1` (racemic) [Example 293, Rac-5-Fluoro-N-{[4-(3-Fluorobicyclo[1.1.1]Pentan-1-Yl)-2,5-Dioxoimidazolidin-4-Yl]Methyl}-4′-(Trifluoromethyl)[Biphenyl]-2-Carboxamide] belongs more than 50 µM; to `O=C1NC(=O)C(CNC(=O)c2ccccc2-c2ccc(C(F)(F)F)cc2)(C2CCOCC2)N1` (racemic) [Example 29, Rac-N-{[2,5-Dioxo-4-(Tetrahydro-2H-Pyran-4-Yl)Imidazolidin-4-Yl]Methyl}-4′-(Trifluoromethyl)[Biphenyl]-2-Carboxamide], more than 50 µM.
For the compound `O=C1NC(=O)[C@](CNC(=O)c2cc(F)ccc2-c2ccc(C3CC3(F)F)cc2)(C2CC2)N1` (stereo partly drawn) [Example 140, N-{[(4R)-4-Cyclopropyl-2,5-Dioxoimidazolidin-4-Yl]Methyl}-4′-(2,2-Difluorocyclopropyl)-4-Fluoro[1,1′-Biphenyl]-2-Carboxamide], the IC50 came to 11 µM.
For `Cc1nscc1C1(CNC(=O)c2ccccc2-c2ccc(C(F)(F)F)cc2)NC(=O)NC1=O` (stereo not drawn) [Example 86, Ent-N-{[4-(3-Methyl-1,2-Thiazol-4-Yl)-2,5-Dioxoimidazolidin-4-Yl]Methyl}-4′-(Trifluoromethyl)[Biphenyl]-2-Carboxamide], the IC50 turned out to be 7.6 µM.
To `Cc1ccc(-c2ccccc2C(=O)NC[C@@]2(C3CC3)NC(=O)NC2=O)cc1Cl` [Example 225, 3′-Chloro-N-{[(4R)-4-Cyclopropyl-2,5-Dioxoimidazolidin-4-Yl]Methyl}-4′-Methyl[1,1′-Biphenyl]-2-Carboxamide] belongs 21 µM; to `O=C1NC(=O)[C@](CNC(=O)c2ccccc2-c2ccc(F)cc2)(C2CC2)N1` [Example 129, N-{[(4R)-4-Cyclopropyl-2,5-Dioxoimidazolidin-4-Yl]Methyl}-4′-Fluoro[Biphenyl]-2-Carboxamide], 8.7 µM.
